Consider 9 compounds from patent US7087623B2, “Thiazole and other heterocyclic ligands for mammalian dopamine, muscarinic and serotonin receptors and transporters, and methods of use thereof” (Sepracor Inc., priority 2001, dated 2006).

Like-named read-outs stand apart in the source and are kept apart here.

Assay [1] has as its target T1, human dopamine transporter (Homo sapiens, UniProt Q01959).
T1 construct: expressed in transfected cells; host or cells: CHO-K1
Description: Binding to human dopamine transporter ([125I]RTI-55). On the procedure: CHO-K1 cell membranes stably transfected with a plasmid encoding the human dopamine transporter were prepared in modified Tris-HCl pH 7.4 buffer using standard techniques. […] Non-specific binding was estimated in the presence of 10 μM nomifensine. […] Trends. […]

The target in assay [2] is T2, human muscarinic M1 receptor (Homo sapiens, UniProt P11229).
T2 construct: expressed in transfected cells; host or cells: BSR-M1H
T2 sequence (P11229 1-460): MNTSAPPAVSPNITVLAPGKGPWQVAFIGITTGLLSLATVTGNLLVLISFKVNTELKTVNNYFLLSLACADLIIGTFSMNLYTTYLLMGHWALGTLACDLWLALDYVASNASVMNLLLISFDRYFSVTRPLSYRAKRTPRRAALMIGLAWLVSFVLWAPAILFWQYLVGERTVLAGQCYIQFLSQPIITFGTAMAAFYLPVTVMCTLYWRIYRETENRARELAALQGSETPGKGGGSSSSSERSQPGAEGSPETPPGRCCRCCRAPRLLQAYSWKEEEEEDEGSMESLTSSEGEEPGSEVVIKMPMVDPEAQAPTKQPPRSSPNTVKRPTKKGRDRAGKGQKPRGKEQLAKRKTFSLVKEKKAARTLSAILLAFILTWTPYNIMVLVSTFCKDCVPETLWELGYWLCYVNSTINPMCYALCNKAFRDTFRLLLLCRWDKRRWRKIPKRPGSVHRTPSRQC
Description: Binding to human muscarinic M1 receptors ([3H]N-methylscopolamine). On the procedure:
This assay measures binding of [^3H]N-methylscopolamine to human muscarinic M1 receptors. BSR-M1H cells transfected with a plasmid encoding the human muscarinic M1 receptor were used to prepare membranes in modified Tris-HCl pH 7.4 buffer using standard techniques. A 25 μg aliquot of membrane was incubated with 0.29 nM [^3H]N-methylscopolamine for 60 minutes at 25° C. Non-specific binding was estimated in the presence of 1 μM atropine. Membranes were filtered and washed 3 times and the filters were counted to determine [^3H]N-methylscopolamine specifically bound. See Buckley, N. J., Bonner, T. I., Buckley, C. M. and Brann, M. R. Antagonist binding properties of five cloned muscarinic receptors expressed in CHO-K1 cells. Mol. Pharmacol. 35: 469–476, 1989; Luthin, G. R. and Wolfe, B. B. Comparison of [^3H]pirenzepine and [^3H]quinuclidinylbenzilate binding to muscarine cholinergic receptors in rat brain. J. Pharmacol. Exp. Ther. 228: 648–665, 1984; and Watson, M., Yamamura, H. I. and Roeske, W. R. A unique regulatory profile and regional distribution of [^3H]pirenzepine binding in the rat provide evidence for distinct M1 and M2 muscarinic receptor subtypes. Life. Sci. 32: 3001–3011, 1983.
(§1) The human 5-HT2a and 5-HT2b screens were conducted according to Bonhaus, D. W. et al. Br. J. Pharmacol. 1995, 115, 622. The human […], W. A. et al. J. Neurochem. 1997, 69, 1449. The human 5-HT6 screen was conducted according to Monsama, F. J. et al. Mol. Pharmacol. 1993, 43, 320. The assay to human D3 receptors was conducted according to Sokoloff, P. et al. Nature 1990, 347;146. The human dopamine transporter assay was conducted according to Gu, H. et. al. J. Biol. Chem. 1994, 269 (10);7124; and Giros, B. et al. Trends. Pharmacol. Sci. 1993, 14: 43. The human muscarinic M1–M4 screens were conducted according to Buckley N. J. et al. Mol. Pharmacol. 1989, 35:469.
(§2) The human dopamine transporter assay was conducted according to Gu, H. et. al. J. Biol. Chem. 1994, 269 (10);7124 and Giros, B. et al. Trends. Pharmacol. Sci. 1993, 14: 43. The human muscarinic M1–M4 screens were conducted according to Buckley N. J. et al. Mol. Pharmacol. 199, 35:469

For assay [3], the target named is T3, human muscarinic M2 receptor (Homo sapiens, UniProt P08172).
T3 construct: expressed in transfected cells; host or cells: BSR-M2H
T3 sequence (P08172 1-466): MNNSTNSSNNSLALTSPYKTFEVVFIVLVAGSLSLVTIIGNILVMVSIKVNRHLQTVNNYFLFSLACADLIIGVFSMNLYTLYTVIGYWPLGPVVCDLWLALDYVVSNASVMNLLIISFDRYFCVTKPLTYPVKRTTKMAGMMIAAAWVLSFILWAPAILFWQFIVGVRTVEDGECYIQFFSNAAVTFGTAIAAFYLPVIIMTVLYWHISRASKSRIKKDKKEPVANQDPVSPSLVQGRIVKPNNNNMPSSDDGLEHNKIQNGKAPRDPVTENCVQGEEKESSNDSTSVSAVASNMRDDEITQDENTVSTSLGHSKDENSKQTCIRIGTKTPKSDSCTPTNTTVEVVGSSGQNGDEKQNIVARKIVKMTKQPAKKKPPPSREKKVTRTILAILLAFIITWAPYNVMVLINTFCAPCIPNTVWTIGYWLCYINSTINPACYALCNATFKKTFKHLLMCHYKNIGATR
Description: Binding to human muscarinic M2 receptors ([3H]N-methylscopolamine). The method, then:
(§3) This assay measures binding of [^3H]N-methylscopolamine to human muscarinic M2 receptors. BSR-M2H cells transfected with a plasmid encoding the human muscarinic M2 receptor were used to prepare membranes in modified Tris-HCl pH 7.4 buffer using standard techniques. A 5 μg aliquot of membrane was incubated with 0.29 nM [^3H]N-methylscopolamine for 60 minutes at 25° C. Non-specific binding was estimated in the presence of 1 μM atropine. Membranes were filtered and washed 3 times and the filters were counted to determine [^3H]N-methylscopolamine specifically bound. See Buckley, N. J., Bonner, T. I., Buckley, C. M. and Brann, M. R. Antagonist binding properties of five cloned muscarinic receptors expressed in CHO-K1 cells. Mol. Pharmacol. 35: 469–476, 1989; and Delmendo, R. E., Michel, A. D. and Whiting, R. L. Affinity of muscarinic receptor antagonists for the three putative muscarinic binding sites. Br. J. Pharmacol. 96: 457–464, 1989.
as §1, §2

For assay [4], the target named is T4, human muscarinic M3 receptor (Homo sapiens, UniProt P20309).
T4 construct: expressed in transfected cells; host or cells: BSR-M3H
Description: Binding to human muscarinic M3 receptors ([3H]N-methylscopolamine). On the procedure:
as §3, with “M3” for “M2”, “BSR-M3H” for “BSR-M2H”, “469–476,” for “469–476, 1989; and Delmendo, R. E., Michel, A. D. and Whiting, R. L. Affinity of muscarinic receptor antagonists for the three putative muscarinic binding sites. Br. J. Pharmacol. 96: 457–464,”
as §1, §2

[5] abbreviates: human, Example 100 table, read-out: IC50 (nM) DAT.
The mark [6] stands for this setting: human, Example 100 table, read-out: IC50 (nM) M1.
[7] abbreviates: human, Example 100 table, read-out: IC50 (nM) M2.
Where [8] appears, read: human, Example 100 table, read-out: IC50 (nM) M3.
Setting [9] is: human, Example 101 table, read-out: IC50 (nM) DAT.
Setting [10] is: human, Example 101 table, read-out: IC50 (nM) M1.
Setting [11] is: human, Example 101 table, read-out: IC50 (nM) M2.
[12] abbreviates: human, Example 101 table, read-out: IC50 (nM) M3.

T4 sequence (P20309 whole entry): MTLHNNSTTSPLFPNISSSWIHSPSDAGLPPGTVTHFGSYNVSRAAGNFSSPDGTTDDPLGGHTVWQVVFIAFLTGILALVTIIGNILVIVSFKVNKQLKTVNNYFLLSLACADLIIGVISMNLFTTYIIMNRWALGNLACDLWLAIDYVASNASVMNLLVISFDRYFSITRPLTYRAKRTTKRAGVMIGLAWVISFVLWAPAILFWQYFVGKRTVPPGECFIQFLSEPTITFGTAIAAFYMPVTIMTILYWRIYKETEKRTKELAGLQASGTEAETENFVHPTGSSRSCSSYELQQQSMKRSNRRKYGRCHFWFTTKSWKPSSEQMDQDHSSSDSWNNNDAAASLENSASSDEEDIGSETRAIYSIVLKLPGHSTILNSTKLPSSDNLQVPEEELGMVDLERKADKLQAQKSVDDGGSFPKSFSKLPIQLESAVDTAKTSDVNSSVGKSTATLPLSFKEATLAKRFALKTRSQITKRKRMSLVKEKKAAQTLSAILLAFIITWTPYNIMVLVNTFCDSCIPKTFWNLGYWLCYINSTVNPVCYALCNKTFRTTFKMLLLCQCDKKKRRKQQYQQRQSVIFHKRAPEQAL
T1 sequence (Q01959 whole entry): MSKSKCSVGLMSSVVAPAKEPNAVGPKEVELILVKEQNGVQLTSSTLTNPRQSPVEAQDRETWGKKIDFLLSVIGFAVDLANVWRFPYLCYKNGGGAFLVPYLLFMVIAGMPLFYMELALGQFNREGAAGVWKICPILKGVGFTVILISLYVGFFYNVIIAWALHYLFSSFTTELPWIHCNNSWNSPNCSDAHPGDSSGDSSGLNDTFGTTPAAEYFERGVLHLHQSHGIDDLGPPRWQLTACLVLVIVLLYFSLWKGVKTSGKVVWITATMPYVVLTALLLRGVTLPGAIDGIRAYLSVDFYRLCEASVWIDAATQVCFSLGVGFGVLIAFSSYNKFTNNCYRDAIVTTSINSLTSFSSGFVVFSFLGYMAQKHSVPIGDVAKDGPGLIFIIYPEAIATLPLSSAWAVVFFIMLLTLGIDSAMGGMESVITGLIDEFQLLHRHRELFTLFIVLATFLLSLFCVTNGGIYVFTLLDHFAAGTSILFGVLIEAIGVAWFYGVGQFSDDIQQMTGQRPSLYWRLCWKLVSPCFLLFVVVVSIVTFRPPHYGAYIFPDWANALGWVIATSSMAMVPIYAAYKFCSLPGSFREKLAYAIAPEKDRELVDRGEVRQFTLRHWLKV

For the compound `CN1CCCC1CCNc1nc(C2(c3ccccc3F)CCCCC2)cs1` (racemic) [Compound 128, {4-[1-(2-fluorophenyl)-cyclohexyl]-thiazol-2-yl}-[2-(1-methyl-pyrrolidin-2-yl)-ethyl]-amine], the IC50 is > 1000 nM in assay [1] (setting [5]), < 1000 nM in assay [2] (setting [6]), > 1000 nM in assay [3] (setting [7]) and < 1000 nM in assay [4] (setting [8]).

As for `CN1CCCC1CCNc1nc(C2(c3ccccc3F)CCCCC2)cs1` (single isomer, unassigned) [Compound 130, {4-[1-(2-fluorophenyl)-cyclohexyl]-thiazol-2-yl}-[2-(1-methyl-pyrrolidin-2-yl)-ethyl]-amine], the IC50 in assay [1] (setting [5]) is > 1000 nM; in assay [2] (setting [6]), > 1000 nM; in assay [3] (setting [7]) it was > 1000 nM; in assay [4] (setting [8]), < 1000 nM.

On to `CN1CCN(c2nc(C3(c4csc5ccc(Cl)cc45)CCOCC3)cs2)CC1` [Compound 36], for which the IC50 in assay [1] (setting [9]), in assay [2] (setting [10]), in assay [3] (setting [11]) and in assay [4] (setting [12]) was > 1000 nM in each case.

For the compound `Clc1ccc(C2(c3csc(N4CCNCC4)n3)CCOCC2)cc1` [Compound 37], the IC50 was > 1000 nM in assay [1] (setting [9]), < 500 nM in assay [2] (setting [10]), > 1000 nM in assay [3] (setting [11]) and < 500 nM in assay [4] (setting [12]).

`CN1CCN(c2nc(C3(c4ccccc4)CCOCC3)cs2)CC1` [Compound 59]: the IC50 in assay [1], in assay [2], in assay [3] and in assay [4] was > 1000 nM in each case.

Take `CN1CCN(c2nc(C3(c4cccc(Cl)c4)CCOCC3)cs2)CC1` [Compound 63]: the IC50 in assay [1] (setting [9]), in assay [2] (setting [10]), in assay [3] (setting [11]) and in assay [4] (setting [12]) was > 1000 nM in each case.

For the compound `CN1CCN(c2nc(C3(c4ccccc4F)CCCCC3)cs2)CC1` [Compound 83], the IC50 in assay [1] (setting [9]) is > 1000 nM; in assay [2] (setting [10]), < 500 nM; in assay [3] (setting [11]) it was > 1000 nM; in assay [4] (setting [12]), < 500 nM.

Regarding `CN1CCN(c2nc(C3(c4ccccc4F)CCCC3)cs2)CC1` [Compound 93], the IC50 in assay [1] (setting [9]) was > 1000 nM; in assay [2] (setting [10]), < 500 nM; in assay [3] (setting [11]) it was < 500 nM; in assay [4] (setting [12]) it was < 100 nM.

For `CN1CCN(c2nc(C3(c4ccccc4F)CCOCC3)cs2)CC1` [Compound 112], the IC50 is > 1000 nM in assay [1] (setting [5]), < 1000 nM in assay [2] (setting [6]), > 1000 nM in assay [3] (setting [7]) and > 1000 nM in assay [4] (setting [8]).
